The source of these data is patent US5616613A, “Platinum(II) complex and malignant tumor treatment agent” (priority 1994, dated 1997).

pIC50: −log10 of the molar value.

For data set [1], the system named is cisplatin-resistant L1210 cells. In words: In vitro cytotoxic effect on cisplatin-resistant mouse leukemia L1210 cells (XTT colorimetric method). The data set is classed as cell-based. The conditions noted are these: read-out: 50% cell growth inhibition concentration (IC50), 37° C., 5 days. As to the method:
A test of the in vitro cytotoxic effect of compound 15 and cisplatin on cisplatin-resistant mouse leukemia L1210 cells was conducted in the following manner.
1×10^5 cisplatin-resistant L1210 cells were seeded in a 96-well plate at 100 μl per well. About 100 μl of the drugs at graded dilutions was added to each well. Culturing was then performed at 37° C. for 5 days, and the cells were counted by the XTT colorimetric method.

The test system of the next data set is testicular carcinoma. To be noted: cited from earlier work; for effectiveness against testicular carcinoma and the like (in words): in vivo.
In the next data set the test system is mouse leukemia L1210. Nature of the data set: Antitumor activity against L1210 cell-planted mice (T/C value). The data set is classed as in vivo. The conditions noted are these: intraperitoneal, CDF1 mice. As to the method: A portion of 1×10^5 mouse leukemia L1210 cells subcultured in DBA/2 mice were transplanted in the abdominal cavities of CDF1 mice (male, 6 weeks old, 6-10 animals/group). Each of the test compounds was intraperitoneally administered to the mice on the 1st, […] and 9th days after the day of transplantation. Each of the preparations was used after being dissolved in distilled water.
The antitumor activity of the platinum complexes against the L1210 cell-planted mice was evaluated based on the T/C value determined by the following equation. [formula]

For data set [2] the following is noted: prior-art complexes; cited from earlier work.

In general, T/C refers to the result in the treated group divided by that in the control group, in per cent. With `N.N.[Cl][Pt][Cl]` [Cisplatin, cis-diamminedichloroplatinum(II) complex], the pIC50 in data set [1] is 7.97. The “effectiveness against testicular carcinoma and the like (in words)” value in the data set on testicular carcinoma is listed as “very effective”. For the same compound, in the data set on testicular carcinoma, the “potency when readministered to recurrent patients (in words)” value was “lowered potency”. Besides, the T/C stood at 101% in the data set with mouse leukemia L1210 (0.25 mg/kg); 101% in the data set with mouse leukemia L1210 (0.5 mg/kg); 106% with mouse leukemia L1210 (1 mg/kg); 123% in the data set with mouse leukemia L1210 (2 mg/kg); 160% in the data set on mouse leukemia L1210 (4 mg/kg).

For the compound `N.N.O=C([O-])C1(C(=O)[O-])CCC1.[Pt+2]` [carboplatin], in the data set on testicular carcinoma, the “effectiveness against testicular carcinoma and the like (in words)” value is “very effective”; the “potency when readministered to recurrent patients (in words)” value is “lowered potency”.

For `O=C(O)c1ccc(C(=O)O)c(C(=O)O)c1` [trimellitic acid], the “stability in aqueous solutions (in words)” value in data set [2] is “poor stability”.
